# Biological target: T1, HCV polymerase (Hepatitis C virus genotype 1b, UniProt P26663)
# T1 construct: 2.5 pmoles (0.15 μg) HCV polymerase protein in a final volume of 75 μL
# Experiment: HCV polymerase primer/template-directed transcription assay (32P-GTP incorporation, filter binding)
# Format: biochemical
# Conditions: @ 50 uM compound; given where IC50 was impractical to calculate; read-out: percent inhibition
# Outline: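 IC50s come from triplicate cpm, refit with an enzyme-concentration (30 nM) correction when under 200 nM. Reactions ran 30 min at 30° C in Tris pH 7.2 with MgCl2, 1 μM GTP spiked with α-32P-GTP, biotin-dG12 primer and poly(rC)300 template, with 1% DMSO. Incorporated label was collected on DE filtermats and counted.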
# T1 sequence (P26663 2420-3010): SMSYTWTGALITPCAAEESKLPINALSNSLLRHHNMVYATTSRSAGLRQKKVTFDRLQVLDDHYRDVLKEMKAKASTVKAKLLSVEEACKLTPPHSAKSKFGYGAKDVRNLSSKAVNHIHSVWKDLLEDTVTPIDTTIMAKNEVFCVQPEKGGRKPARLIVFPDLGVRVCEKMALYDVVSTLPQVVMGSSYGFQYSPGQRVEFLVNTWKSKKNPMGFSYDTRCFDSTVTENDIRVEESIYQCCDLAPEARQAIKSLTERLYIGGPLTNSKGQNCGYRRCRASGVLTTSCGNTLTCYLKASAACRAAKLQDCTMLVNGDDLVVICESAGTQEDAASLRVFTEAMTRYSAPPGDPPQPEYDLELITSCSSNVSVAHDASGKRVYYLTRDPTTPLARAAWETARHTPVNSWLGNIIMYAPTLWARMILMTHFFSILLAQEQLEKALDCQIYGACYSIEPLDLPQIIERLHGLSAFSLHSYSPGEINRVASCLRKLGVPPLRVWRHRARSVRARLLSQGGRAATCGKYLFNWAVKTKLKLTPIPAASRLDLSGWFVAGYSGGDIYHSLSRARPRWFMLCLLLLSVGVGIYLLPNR
row,Structure (SMILES),inhibition at 50 µM [%]
1,"O=C1CC(=O)OC(CSc2ncccn2)(C2CCCC2)C1 (stereo not shown) [I(1), 6-cyclopentyl-6-[(pyrimidin-2-ylthio)methyl]dihydro-2H-pyran-2,4(3H)-dione]",27
2,"O=C1CC(=O)OC(CSCc2ccco2)(C2CCCC2)C1 (stereo not shown) [I(2), 6-cyclopentyl-6-{[(2-furylmethyl)thio]methyl}dihydro-2H-pyran-2,4(3H)-dione]",22
3,"CCOc1ccc2nc(SCC3(C4CCCC4)CC(=O)CC(=O)O3)sc2c1 (stereo not shown) [I(3), 6-cyclopentyl-6-{[(6-ethoxy-1,3-benzothiazol-2-yl)thio]methyl}dihydro-2H-pyran-2,4(3H)-dione]",-2
4,"CC(C)c1ccc(SCC2(C3CCCC3)CC(=O)CC(=O)O2)cc1 (stereo not shown) [I(4), 6-cyclopentyl-6-{[(4-isopropylphenyl)thio]methyl}dihydro-2H-pyran-2,4(3H)-dione]",44

# Source: patent US7473790B2 (Pfizer Inc., priority 2003, dated 2009)
